Results: patent US7323474B2, “Pyridine derivatives inhibiting angiogenesis and/or VEGF receptor tyrosine kinase” (Novartis AG, priority 2000, dated 2008)

Columns and labels:
[1] = molecular target: T1, KDR VEGF-receptor tyrosine kinase (Homo sapiens, UniProt P35968); test: Test for activity against KDR VEGF-receptor tyrosine kinase; type: biochemical; settings: KDR kinase domain; poly(Glu,Tyr) 4:1 8 μg/ml, 8 μM [33P]-ATP, 10 minutes at room temperature
T1 construct: instead of the Flt-1 kinase domain, the KDR kinase domain
T1 sequence (P35968 834-1162 limits assumed): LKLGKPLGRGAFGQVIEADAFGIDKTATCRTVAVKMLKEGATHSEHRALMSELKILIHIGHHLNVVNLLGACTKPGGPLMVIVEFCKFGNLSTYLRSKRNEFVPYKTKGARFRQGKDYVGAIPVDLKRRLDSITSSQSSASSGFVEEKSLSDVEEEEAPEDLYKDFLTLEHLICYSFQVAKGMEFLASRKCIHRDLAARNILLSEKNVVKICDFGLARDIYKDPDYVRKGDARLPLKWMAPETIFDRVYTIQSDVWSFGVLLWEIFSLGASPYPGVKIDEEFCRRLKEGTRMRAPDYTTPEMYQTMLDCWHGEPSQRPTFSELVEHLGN
Method: Test for activity against VEGF-receptor tyrosine kinase: the test is conducted using Flt-1 VEGF-receptor tyrosine kinase. The detailed procedure is as follows: 30 μl kinase solution (kinase domain of Flt-1, Shibuya et al., Oncogene 5, 519-24 [1990], according to the specific activity, in order to achieve an activity of 4000-6000 counts per minute [cpm] in the sample without inhibitor) in 20 mM Tris.HCl pH 7.5, 3 mM manganese dichloride (MnCl2), 3 mM magnesium chloride (MgCl2) and 3 μg/ml poly(Glu,Tyr) 4:1 (Sigma, Buchs, Switzerland), 8 μM [^33P]-ATP (0.2 μCi/batch), 1% dimethyl sulfoxide, and 0 to 50 μM of the compound to be tested are Incubated together for 10 minutes at room temperature. The reaction is then ended by the addition of 10 μl 0.25 M ethylenediaminetetraacetate (EDTA) pH 7. Using a multichannel dispenser (LAB SYSTEMS, USA), an aliquot of 20 μl is applied to a PVDF (=polyvinyl difluoride) Immobilon P membrane (Millipore, USA), which is incorporated into a Millipore microtitre filter manifold, and connected to a vacuum. Following complete elimination of the liquid, the membrane is washed 4 times successively in a bath containing 0.5% phosphoric acid (H3PO4), incubated for 10 minutes each time while shaking, then mounted in a Hewlett Packard TopCount Manifold and the radioactivity measured after the addition of 10 μl Microscint® (β-scintillation counter liquid; Packard USA). IC50-values are determined by linear regression analysis of the percentages for the inhibition of each compound in three concentrations (as a rule 0.01, 0.1, and 1 μM). Inhibition values (IC50 50% inhibition of activity compared with the control without an inhibitor of formula I) in the range of 5 nM to 1 μM, especially In the range of 5 nM to 500 nM are found.
Analogously to the above test, the efficacy of the compounds according to the invention as inhibitors of VEGF activity can be tested using the VEGF receptor tyrokinase KDR. In this test, instead of the Flt-1 kinase domain, the KDR kinase domain (Parast et al., Biochemistry 37 (47), 16788-801 (1998)) is used. The only difference in carrying out this test from the above test lies in the concentration of poly(Glu,Tyr) 4:1 (8 μg/ml), MnCl2 (1 mM) and MgCl2 (10 mM).
Test for activity against KDR VEGF-receptor tyrosine kinase The test is conducted using KDR VEGF-receptor tyrosine kinase, as described hereinabove. The IC50 values determined are given below, insofar as they have been accurately recorded: […]

[2] = molecular target: T2, human VEGF receptor (KDR) (Homo sapiens, UniProt P35968); test: Test for activity against VEGF-induced KDR phosphorylation (transfected CHO cells, sandwich ELISA); type: cell-based; settings: 2 h compound, then VEGF 20 ng/ml for 5 min, % inhibition of VEGF-induced KDR phosphorylation, read-out: ED50 (the source's name)
T2 construct: expressed in transfected cells; host or cells: CHO cells (stably transfected)
T2 sequence (P35968 20-1356): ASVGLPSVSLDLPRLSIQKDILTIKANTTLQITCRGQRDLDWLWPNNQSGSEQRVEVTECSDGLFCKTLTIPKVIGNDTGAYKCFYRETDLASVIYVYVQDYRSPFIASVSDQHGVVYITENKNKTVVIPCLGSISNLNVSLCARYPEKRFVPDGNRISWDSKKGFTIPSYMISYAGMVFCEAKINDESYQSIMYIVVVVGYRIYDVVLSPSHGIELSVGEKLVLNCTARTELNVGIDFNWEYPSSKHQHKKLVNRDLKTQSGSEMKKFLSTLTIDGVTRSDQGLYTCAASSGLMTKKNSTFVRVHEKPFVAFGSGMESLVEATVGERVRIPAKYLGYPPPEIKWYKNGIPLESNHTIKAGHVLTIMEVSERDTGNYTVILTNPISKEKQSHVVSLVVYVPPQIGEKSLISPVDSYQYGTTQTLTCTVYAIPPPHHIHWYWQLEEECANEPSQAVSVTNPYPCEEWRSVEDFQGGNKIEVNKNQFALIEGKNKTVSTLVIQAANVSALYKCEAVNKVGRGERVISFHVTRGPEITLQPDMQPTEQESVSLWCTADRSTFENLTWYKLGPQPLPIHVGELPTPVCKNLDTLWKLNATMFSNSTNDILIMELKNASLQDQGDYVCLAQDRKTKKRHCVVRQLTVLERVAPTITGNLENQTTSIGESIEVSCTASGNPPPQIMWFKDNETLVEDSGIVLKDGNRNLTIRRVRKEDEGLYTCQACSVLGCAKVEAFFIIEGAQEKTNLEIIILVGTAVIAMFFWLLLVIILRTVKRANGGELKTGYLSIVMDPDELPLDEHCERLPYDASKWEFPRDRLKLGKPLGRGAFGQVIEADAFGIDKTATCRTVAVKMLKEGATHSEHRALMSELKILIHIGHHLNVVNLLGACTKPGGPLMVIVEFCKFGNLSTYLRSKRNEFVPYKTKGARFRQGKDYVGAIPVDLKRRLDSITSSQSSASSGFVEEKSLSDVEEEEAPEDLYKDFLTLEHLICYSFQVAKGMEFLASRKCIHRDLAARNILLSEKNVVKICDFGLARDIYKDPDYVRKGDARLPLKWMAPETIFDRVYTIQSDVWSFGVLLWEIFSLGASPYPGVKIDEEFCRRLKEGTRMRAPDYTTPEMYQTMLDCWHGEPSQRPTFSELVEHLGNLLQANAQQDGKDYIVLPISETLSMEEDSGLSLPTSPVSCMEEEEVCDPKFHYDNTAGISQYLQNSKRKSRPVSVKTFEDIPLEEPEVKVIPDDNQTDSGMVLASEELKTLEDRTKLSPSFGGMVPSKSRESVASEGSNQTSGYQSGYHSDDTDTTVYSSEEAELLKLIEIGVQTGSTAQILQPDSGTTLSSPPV
Method: Using a further cellular in vitro experiment, the inhibition of the VEGF-induced KDR autophosphorylation can be confirmed: Transfected CHO cells, which permanently express human VEGF receptor (KDR), are seeded in culture medium (with 10% fetal calf serum=FCS) in 6-well cell culture plates and incubated at 37° C., 5% CO2 until they are approximately 80% confluent. The compounds to be tested are then diluted in culture medium (without FCS, with 0.1% bovine serum albumin=BSA) and added to the cells. (Controls receive medium without test compounds). After incubation for two hours at 37° C., recombinant VEGF is added; the final VEGF concentration is 20 ng/ml. After incubating for a further five minutes at 37° C., the cells are washed twice with ice-cold PBS (phosphate-buffered physiological saline) and immediately lysed in 100 μl lysis buffer per well. The lysates are then centrifuged to remove the cell nuclei, and the protein concentrations of the supematants are determined by a commercial protein assay (BIORAD). The lysates can then be either further used immediately or stored at −20° C. if required. To determine the KDR phosphorylation, a “sandwich ELISA” is carried out. A monoclonal antibody to KDR (for example Mab 1495.12.14; prepared by H. Towbin) is immobilised on black ELISA plates (OptiPlate™ HTRF-96 by Packard). Subsequently, the plates are washed and any remaining free protein binding sites are neutralised with 1% BSA in PBS. The cell lysates (20 μg protein per well) are then incubated over night at 4° C. together with an anti-phosphotyrosin antibody, which is coupled with alkaline phosphatase (PY20:AP from Transduction Laboratories). […] Luminescence is measured in a Packard Top Count Microplate Scintillation Counter (Top Count). The difference between the signal from the positive control (stimulated with VEGF) and that from the negative control (not stimulated with VEGF) corresponds to the VEGF-induced KDR phosphorylation (=100%). The activity of the tested substances is calculated as % inhibition of the VEGF-induced KDR phosphorylation, whereby the concentration of a substance which effects semi-maximum inhibition is called ED50 (effective dose for 50% inhibition). […] Test for activity against VEGF-Induced KDR phosphorylation The cellular in vitro test is carried out using VEGF and KDR-transfected cells, as described above. The ED50 values determined are given below, insofar as they have been accurately recorded: […]

SMILES	IC50 [1] [µM]	melting point [°C]	IC50 [2] [µM]
CC(C)(C)[C@H]1CC[C@H](Nc2ncc(CCc3cccnc3)c3ccccc23)CC1 [16 (E isomer), trans 1-(4-tert-butyl-cyclohexylamino)-4-[2-(pyridin-3-yl)-ethyl]-isoquinoline]	0.196	124 to 125	
CC(C)[C@H]1CC[C@H](Nc2ncc(Cc3ccc(O)nc3)c3ccccc23)CC1 [29 (E isomer), trans 1-(4-isopropyl-cyclohexylamino)-4-[(6-hydroxy-pyridin-3-yl)-methyl]-isoquinoline]	0.087		
Clc1ccc(Nc2ncc(CCc3cccnc3)c3ccccc23)cc1 [Example 1, 1-(4chloroanilino)-4-[2-(pyridin-3-yl)-ethyl]-isoquinoline]	0.105	157 to 158	
Cc1ccc(Nc2ncc(/C=C\c3cccnc3)c3ccccc23)cc1Br [Example 2, (Z) 1-(3-bromo-4-methylanilino)-4-[2-(pyridin-3-yl)-vinyl]-isoquinoline]	0.049		
Cc1ccc(Nc2ncc(/C=C/c3cccnc3)c3ccccc23)cc1Br [Example 3, (E) 1-(3-bromo-4-methylanilino)-4-[2-(pyridin-3-yl)-vinyl]-isoquinoline]	0.123	196 to 197	
CC(C)(C)c1ccc(Nc2ncc(CCc3cccnc3)c3ccccc23)cc1 [Example 5]	0.025	81	0.01
Nc1cc(Cl)cc(C(F)(F)F)c1 [Example 7, 5-amino-3-chloro-benzotrifluoride]	0.185		
Cc1cc(Nc2ncc(CCc3cccnc3)c3ccccc23)ccc1C(C)C [Example 8]	0.027	133 to 134	0.011
CCc1ccc(Nc2ncc(CCc3cccnc3)c3ccccc23)cc1Br [Example 9, 1-(3-bromo-4ethylanilino)-4-[2-(pyridin-3-yl)-ethyl]-isoquinoline]	0.004	119	0.091
CC(C)(C)c1cccc(Nc2ncc(CCc3cccnc3)c3ccccc23)c1 [Example 10]	0.033	133 to 134	
FC(F)(F)c1ccc(Nc2ncc(CCc3cccnc3)c3ccccc23)cc1C(F)(F)F [Example 11]	0.041	124 to 125	
FC(F)(F)c1cc(Nc2ncc(CCc3cccnc3)c3ccccc23)cc(C(F)(F)F)c1 [Example 12]	0.192	174	
FC(F)(F)c1cc(Nc2ncc(CCc3cccnc3)c3ccccc23)ccc1Cl [Example 13]	0.053	159	
Cc1ccc(CCc2cnc(N[C@H]3CC[C@H](C(C)C)CC3)c3ccccc23)cn1 [Example 19, trans 1-(4-isopropyl-cyclohexylamino)-4-[2-(6-methyl-pyridin-3-yl)-ethyl]-isoquinoline]	0.127		
Cc1ccc(CCc2cnc(Nc3ccc(C(C)C)c(C)c3)c3ccccc23)cn1 [Example 20]	0.048		
CCc1ccc(Nc2ncc(CCc3ccc(C)nc3)c3ccccc23)cc1Br [Example 21]	0.015	103 to 105	
COc1ccc(Cc2cnc(Nc3ccc(C(C)(C)C)cc3)c3ccccc23)cn1 [Example 33e, 1-[4-(tert-butyl)-anilino]-4-[(6-methoxy-pyridin-3yl)-methyl]-isoquinoline]			0.028
CC(C)(C)c1ccc(Nc2ncc(Cc3ccc(O)nc3)c3ccccc23)cc1 [Example 34e, 1-[4-(tert-butyl)-anilino]4-[(6-hydroxy-pyridin-3-yl)-methyl]-isoquinoline]			0.019
CCc1ccc(Nc2ncc(Cc3ccc(O)nc3)c3ccccc23)cc1Br [Example 34g, 1-(3-bromo-4-ethylanilino]-4-[(6-hydroxy-pyridin-3-yl)-methyl]-isoquinoline]	0.137		0.029
CCc1ccc(Nc2ncc(Cc3ccc(OC)nc3)c3ncccc23)cc1Br [Example 37a, 5-(3-bromo-4-ethyl-anilino)-8-[(6-methoxy-pyridin-3-yl)-methyl]-[1,6]naphthyridine]		142 to 146	
CCc1ccc(Nc2ncc(Cc3ccc(O)nc3)c3ncccc23)cc1Br [Example 37b, 5-(3-bromo-4-ethyl-anilino)-8-[(6-hydroxy-pyridin-3-yl)-methyl]-[1,6]naphthyridine]	0.092		
CC(C)[C@H]1CC[C@H](Nc2ncc(Cc3ccc(O)nc3)c3ncccc23)CC1 [Example 39, trans 5-(4-isopropyl-cyclohexylamino)-8-[(6-hydroxy-pyridin-3-yl)-methyl]-[1,6]naphthyridine]		232 to 235	
COc1ccc(Cc2cnc(Nc3ccc(C(C)(C)C)cc3)c3cccnc23)cn1 [Example 40e, 5-[4-(tert-butyl)-anilino]-8-[(6-methoxy-pyridin-3-yl)-methyl]-[1,6]naphthyridine]	0.081		0.052
CC(C)(C)c1ccc(Nc2ncc(Cc3ccc(O)nc3)c3ncccc23)cc1 [Example 41e, 5-[4-(tert-butyl)-anilino]-8-[(6-hydroxy-pyridin-3-yl)-methyl]-[1,6]naphthyridine]			0.022
Cc1nc(Nc2cccc(C(F)(F)F)c2)c2ccccc2c1Cc1ccc(Cl)nc1 [Example 45a, 1-(3-trifluoromethyl-anilino)-4-[(6-chloro-pyridin-3-yl)-methyl]-3-methylisoquinoline]		137	
